Assay results reported in patent US20050020550A1, “Selective testicular 11beta-HSD inhibitors and methods of use thereof” (priority 2003, published 2005).

How the values were obtained:
11β-HSD1 Reductase = target: T1, 11β-HSD1 Reductase (Rattus norvegicus, UniProt P16232); assay: Inhibition of 11β-HSD1 reductase (Table 1); type: cell-based
T1 construct: an enzyme present in testicular Leydig cells; endogenous in cells; host or cells: freshly prepared rat Leydig cells

11β-HSD1 Dehydrogenase = target: T2, 11β-HSD1 Dehydrogenase (Rattus norvegicus, UniProt P16232); assay: Inhibition of 11β-HSD1 dehydrogenase (Table 1); type: cell-based
T2 construct: an enzyme present in testicular Leydig cells; endogenous in cells; host or cells: freshly prepared rat Leydig cells
T2 sequence (P16232 whole entry): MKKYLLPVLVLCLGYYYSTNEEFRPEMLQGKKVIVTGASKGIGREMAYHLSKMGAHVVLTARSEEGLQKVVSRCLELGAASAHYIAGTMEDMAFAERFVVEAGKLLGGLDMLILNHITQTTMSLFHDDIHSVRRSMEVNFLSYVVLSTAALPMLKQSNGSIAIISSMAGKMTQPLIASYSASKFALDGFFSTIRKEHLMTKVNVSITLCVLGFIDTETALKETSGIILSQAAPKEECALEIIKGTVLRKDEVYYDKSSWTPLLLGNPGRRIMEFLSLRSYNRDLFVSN

11β-HSD2 Dehydrogenase = target: T3, 11β-HSD2 Dehydrogenase (Homo sapiens, UniProt P80365); assay: Inhibition of 11β-HSD2 dehydrogenase (Table 1); type: biochemical
T3 sequence (P80365 1-405): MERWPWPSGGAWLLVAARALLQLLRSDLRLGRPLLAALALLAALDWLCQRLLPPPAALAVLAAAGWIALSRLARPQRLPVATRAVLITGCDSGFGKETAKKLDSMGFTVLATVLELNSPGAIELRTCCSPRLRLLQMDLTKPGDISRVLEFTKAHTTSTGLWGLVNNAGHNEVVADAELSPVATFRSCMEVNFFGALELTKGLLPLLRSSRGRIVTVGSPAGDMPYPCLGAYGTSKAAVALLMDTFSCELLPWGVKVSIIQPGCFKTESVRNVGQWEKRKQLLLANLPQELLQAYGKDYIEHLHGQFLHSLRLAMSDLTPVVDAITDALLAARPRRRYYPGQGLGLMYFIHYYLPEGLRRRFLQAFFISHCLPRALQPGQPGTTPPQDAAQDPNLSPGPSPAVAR

rat aortic rings = assay: Contractile response of rat aortic rings to phenylephrine; conditions: rat aortic rings incubated with the steroid, compared to controls
Protocol: Male Sprague-Dawley (150-200 g) rats were anesthetized with pentobarbital (50 mg/kg IP), and a median sternotomy was performed followed by the rapid removal of the thoracic aorta. The adventitia was removed, but the endothelium was left intact. The aorta was cut into 2-3 mm rings and individual rings were placed into a single well of a twenty four well culture plate and incubated at 37° C. under 95% O2-5% CO2. Each well contained 1 mL of DMEM/F12 containing 1% fetal bovine serum, streptomycin (100 μg/ml), penicillin (100 units/ml) and amphotericin (0.25 μg/ml). Aortic rings were incubated for 24 hours prior to contractility measurements with the following combinations of steroids, and antisense/nonsense oligonucleotides (3 μmol/L): • Corticosterone (10 nmol/L)+11β-HSD2 antisense or 11β-HSD2 nonsense oligomer • Corticosterone (10 nmol/L)+11β-HSD1 antisense or 11β-HSD1 nonsense oligomer • In 11-dehydrocorticosterone experiments with vehicle alone • 11-dehydrocorticosterone (100 nmol/L)+11β-HSD1 Antisense or 11β-HSD1 nonsense oligomer
Antisense phosphorothioate oligonucleotides, targeted to block either 11β-HSD2 or 11β-HSD1 gene expression, were obtained from Research Genetics, Huntsville Ala. Antisense oligomers complementary to 20 bp sequences spanning the ribosome binding/translation start site were used. Oligomer sequences were: 5′-CATAACTGCCGTCCAACAGC-3′ (SEQ ID No.: 2) for 11β-HSD1 Antisense and 5′-AGCCCAGCGCTCCATGACTT-3′ (SEQ ID No. 3) for 11β-HSD2 antisense. In control experiments the corresponding sense sequence was used as the nonsense oligomer. Antisense and nonsense oligomers were added directly to each well at 20 μg/10:1 sterile H2O per well for a final concentration of 3 μmol/L.
For contraction measurements, aortic rings were suspended by tungsten wires with 1 g of tension and placed in a vessel bath containing serum free DMEM/F 12 media at 37° C. aerated with 95% O2-5% CO2, at pH 7.4. Vessels were equilibrated for 20 minutes and then tested with phenylephrine (1 nmol/L−10 μmol/L). Although phenylephrine is structurally not a catecholamine, it is considered to be a functional catecholamine as it activates […]. Due to its favorable stability characteristics, it is widely used as a catecholamine substitute in experiments of this nature. The intensity of contraction was assessed by use of a Narishige micromanipulator and model FT03 force transducer (Grass Instrument Co. West Warwick, R.I.). Measurements were recorded on computer using the Labview 4.1 Virtual Instrument System (National Instruments, Austin, Tex.).

T1 sequence (P16232 whole entry): as the sequence (P16232 whole entry) above

Compound | 11β-HSD1 Reductase (inhibition) (11β-HSD1 Reductase) | 11β-HSD1 Dehydrogenase (inhibition) (11β-HSD1 Dehydrogenase) | 11β-HSD2 Dehydrogenase (inhibition) (11β-HSD2 Dehydrogenase) | effect of the steroid on contractile responses to phenylephrine (rat aortic rings)
C[C@]12CCC(=O)C=C1CC[C@@H]1[C@H]2C(=O)C[C@]2(C)C(=O)CC[C@H]12 (stereo in doubt) [11-Keto-androstenedione] | Selective Inhibitor | No Inhibition | No Inhibition | –
C[C@]12CC[C@@H]3[C@@H]([C@@H](O)C[C@]4(C=O)[C@@H](C(=O)CO)CC[C@H]34)[C@@]1(C)CC[C@H](O)C2 [3α,5α-reduced aldosterone] | No Inhibition | Moderate Inhibitor | Potent Inhibitor | –
C[C@]12CC[C@H](O)C[C@@H]1CC[C@@H]1[C@@H]2C(=O)C[C@]2(C)C(=O)CC[C@@H]12 [3α,5α-reduced-11-keto-androstenedione] | Selective Inhibitor | No Inhibition | – | –
CC(=O)[C@H]1CC[C@@H]2[C@@H]3CC[C@@H]4C[C@@H](O)CC[C@]4(C)[C@@H]3C(=O)C[C@]12C [3α,5α-reduced-11-keto-progesterone] | Selective Inhibitor | No Inhibition | Potent Inhibitor | –
C[C@]12CC[C@H](O)C[C@@H]1CC[C@H]1[C@@H]3CC[C@H](O)[C@@]3(C)CC(=O)[C@@H]12 [3α,5α-reduced-11-keto-testosterone] | Selective Inhibitor | No Inhibition | – | –
C[C@]12CC[C@H](O)C[C@H]1CC[C@@H]1[C@H]2[C@@H](O)C[C@]2(C)C(=O)CC[C@H]12 [3α,5α-reduced- 11β-OH—androstenedione] | No Inhibition | Moderate Inhibitor | Potent Inhibitor (Non-Selective) | –
CC(=O)[C@H]1CC[C@@H]2[C@@H]3CC[C@@H]4C[C@@H](O)CC[C@]4(C)[C@@H]3[C@@H](O)C[C@]12C [3α,5α-reduced- 11β-OH—progesterone] | No Inhibition | Potent Inhibitor (Non-Selective) | Potent Inhibitor (Non-Selective) | –
C[C@]12CC[C@H](O)C[C@H]1CC[C@@H]1[C@H]2[C@@H](O)C[C@@]2(C)[C@@H]1CC[C@@H]2O [3α,5α-reduced- 11β-OH—testosterone] | No Inhibition | Potent Inhibitor (Non-Selective) | Potent Inhibitor (Non-Selective) | –
C[C@]12CC[C@H](O)C[C@@H]1CC[C@@H]1[C@@H]2[C@@H](O)C[C@]2(C)[C@@H](C(=O)CO)CC[C@@H]12 [3α,5α-reduced- corticosterone] | No Inhibition | Potent Inhibitor | Potent Inhibitor | –
C[C@]12CC[C@H](O)C[C@@H]1CC[C@H]1[C@@H]3CC[C@H](C(=O)CO)[C@@]3(C)CC(=O)[C@@H]12 [3α,5α-tetrahydro-11-dehydro-corticosterone] | Potent Inhibitor | No Inhibition | Potent Inhibitor | –
CC(=O)[C@H]1CC[C@@H]2[C@@H]3CC[C@@H]4C[C@@H](O)CC[C@]4(C)[C@@H]3[C@@H](O)C[C@]12C [3α,5β-reduced- 11β-OH—progesterone] | No Inhibition | Moderate Inhibitor | No Inhibition | –
C[C@]12CC[C@H](O)C[C@H]1CC[C@@H]1[C@H]2[C@@H](O)C[C@@]2(C)[C@@H]1CC[C@@H]2O [3α,5β-reduced- 11β-OH—testosterone] | No Inhibition | Moderate Inhibitor | No Inhibition | –
C[C@]12CCC(=O)C[C@@H]1CC[C@@H]1[C@@H]2[C@@H](O)C[C@]2(C)[C@@H](C(=O)CO)CC[C@@H]12 [5α-dihydro- corticosterone] | No inhibition | Potent Inhibitor | Potent Inhibitor | –
C[C@]12CC(=O)[C@@H]3[C@@H](CCC4=CC(=O)CC[C@@]43C)[C@H]1CC[C@@H]2O [11-Keto-testosterone] | Selective Inhibitor | No Inhibition | No Inhibition | –
C[C@]12CC(=O)[C@H]3[C@@H](CCC4=CC(=O)CC[C@@]43C)[C@@H]1CC[C@@H]2C(=O)CO [11-dehydro-corticosterone, reference compound] | – | – | – | amplifies the contractile responses
CC(=O)[C@H]1CC[C@@H]2[C@@H]3CCC4=CC(=O)CC[C@]4(C)[C@@H]3[C@@H](O)C[C@]12C [11β-OH—progesterone] | No Inhibition | Potent Inhibitor (Non-Selective) | – | –
C[C@]12C[C@H](O)[C@@H]3[C@@H](CCC4=CC(=O)CC[C@@]43C)[C@H]1CC[C@@H]2O [11β-OH—testosterone] | No Inhibition | Inhibitor (Non-Selective) | Inhibitor (Non-Selective) | –
C[C@H](CCC(=O)O)[C@H]1CC[C@H]2[C@@H]3[C@H](O)C[C@@H]4C[C@H](O)CC[C@]4(C)[C@H]3CC[C@]12C [chenodeoxycholic acid] | No Inhibition | Selective inhibitor | No Inhibition | –
C[C@]12C[C@H](O)[C@H]3[C@@H](CCC4=CC(=O)CC[C@@]43C)[C@@H]1CC[C@@H]2C(=O)CO [corticosterone, reference compound] | – | – | – | amplified contractile responses
